# Numbers after ± are expanded uncertainties.
# Key:
# [1] = Molar enthalpy of transition or fusion; conditions: Crystal 1; DSC
# [2] = DSC
smiles,measurement,setting,value
CC[NH3+].O=[N+]([O-])[O-] [ethylammonium nitrate],Molar enthalpy of transition or fusion,[1],3.15 ± 0.155 kcal/mol
same,Triple point temperature,[2]; Crystal 1,285.15 ± 6 K
same,Glass transition temperature,[2]; Glass,-41.00 ± 6 °C

# Reference: the NIST ThermoML archive (doi:10.1016/j.jct.2019.03.012)
